In ChEMBL document CHEMBL3638904, “Pyridine-2-derivatives as smoothened receptor modulators” (2015):

Molecular target: Protein smoothened (Homo sapiens, UniProt Q99835)
Assay: Radioligand Competition Binding Assay: For the binding competition assay, 100 μL of Assay Buffer was added to all the wells of a 96 well GF/B filter plate (Millipore MultiScreen-HTS-FB cat# MSFBN6B50) for 10 minutes to pre-wet the filter prior to evacuation of the buffer (8 inches Hg for 8 seconds). To the pre-wet wells is added: 20 μL of Assay Buffer, 10 μL diluted test agent, 20 μL of a tritiated Smo antagonist (15 nM stock solution), and 50 μL of membrane preparation (40 μg total protein per well). The plates are sealed and mixed at room temperature for 5 min, incubated at room temperature for 2 hours, then washed 5 times with 100 μL/each of wash buffer and vacuum dried for 8 seconds at 8 inches Hg. The plate is then dried for one hour in a 60° C. oven prior to the addition of 45 μL of Microscint 20 (Packard, #6013621) to each well and incubation at RT for 30 minutes to 1 hour. The plate is counted in a TopCount scintillation counter (Perkin Elmer).

Protein smoothened, sequence (Q99835 whole entry): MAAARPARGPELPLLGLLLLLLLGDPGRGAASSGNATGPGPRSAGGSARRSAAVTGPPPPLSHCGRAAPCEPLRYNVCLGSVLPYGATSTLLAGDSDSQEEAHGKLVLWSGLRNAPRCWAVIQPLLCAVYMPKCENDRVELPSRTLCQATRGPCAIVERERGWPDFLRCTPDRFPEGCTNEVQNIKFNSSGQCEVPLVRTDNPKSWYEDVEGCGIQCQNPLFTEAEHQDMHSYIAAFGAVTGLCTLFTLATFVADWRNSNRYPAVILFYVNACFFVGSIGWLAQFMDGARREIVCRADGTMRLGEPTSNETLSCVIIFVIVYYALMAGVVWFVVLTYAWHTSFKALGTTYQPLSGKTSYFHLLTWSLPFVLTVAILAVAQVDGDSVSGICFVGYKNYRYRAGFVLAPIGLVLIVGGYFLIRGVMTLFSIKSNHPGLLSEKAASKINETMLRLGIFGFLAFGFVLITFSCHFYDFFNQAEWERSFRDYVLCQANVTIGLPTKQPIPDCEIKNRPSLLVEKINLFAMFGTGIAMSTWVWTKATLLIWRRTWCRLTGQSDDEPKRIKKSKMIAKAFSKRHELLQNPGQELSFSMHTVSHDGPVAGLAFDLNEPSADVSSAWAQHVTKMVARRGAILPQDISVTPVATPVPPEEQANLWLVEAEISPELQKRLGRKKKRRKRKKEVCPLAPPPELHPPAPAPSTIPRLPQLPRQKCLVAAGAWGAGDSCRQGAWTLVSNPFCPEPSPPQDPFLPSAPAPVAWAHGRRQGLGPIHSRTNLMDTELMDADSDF

| SMILES | IC50 |
| --- | --- |
| Cc1ccc(-c2nc(N3CCN(C(=O)CCS(C)(=O)=O)CC3)ccc2Cl)nc1 | 22.5 nM |
| Cc1cccnc1-c1cc(N2[C@@H]3CC[C@H]2CN(C(=O)CC(C)(C)O)C3)ncc1Cl | 92.2 nM |
| O=S(=O)(NC1CCN(c2ccc(Cl)c(-c3ccccn3)n2)CC1)C1CC1 | 16.5 nM |
| O=C(CCO)NC1CCN(c2ccc(Cl)c(-c3ccccn3)n2)CC1 | 110 nM |

Continued, values first:

| IC50 | SMILES |
| --- | --- |
| 40.3 nM | Cc1cccnc1-c1cc(N2CCN(c3ncc(Br)cn3)CC2)ncc1Cl |
| 7.11 nM | Cc1cc(F)cnc1-c1cc(N2CCN(C(=O)CCS(C)(=O)=O)CC2)ncc1Cl |
